From patent publication US20060057671A1 (priority 2004, published 2006)
Like-named read-outs stand apart in the source and are kept apart here.

What was measured:
[1] = assay type: physicochemical
[2] = assay type: physicochemical; remark: listed apart in the source

## poly-L-lysine
[1]; pH 7
  CD minimum: approximately 204 nm
[1]; pH 11
  CD minimum: approximately 216 nm
[2]; pH 7
  absorbance plateau: approximately 0.22
[2]; pH 11
  absorbance plateau: approximately 0.12
